# Key:
# Test in all cases: KINOMEscan kinase binding assay
# EPHB1 = conditions: at 1 μM
# Summary of the method: (§1)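 We measured how much kinase stayed bound to an immobilized small-molecule ligand when test compound was present. Binding ran at room temperature for 1 h, and the kinase eluted from the beads was counted by qPCR. Lower % Ctrl indicated tighter compound binding.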
# EPHA8 = conditions: at 1 μM
# Summary of the method: as §1
# TRKA = conditions: at 1 μM
# Summary of the method: as §1
# FLT4 = conditions: at 1 μM
# Summary of the method: as §1
# FES = conditions: at 1 μM
# Summary of the method: as §1
# [1] = tested on: ABL1(F317I)-nonphosphorylated; conditions: at 1 μM
# Summary of the method: as §1
# EGFR = conditions: at 1 μM
# Summary of the method: as §1
# KIT(V559D) = conditions: at 1 μM
# Summary of the method: as §1
# FLT3(R834Q) = conditions: at 1 μM
# Summary of the method: as §1
# [2] = tested on: ABL1(Q252H)-nonphosphorylated; conditions: at 1 μM
# Summary of the method: as §1
# PDGFRB = conditions: at 1 μM
# Summary of the method: as §1
# [3] = tested on: ABL1(Y253F)-phosphorylated; conditions: at 1 μM
# Summary of the method: as §1
# [4] = tested on: JAK2(JH1domain-catalytic); conditions: for % Ctrl: JAK2(JH1domain-catalytic), at 1 μM; for Kd: read-out: JAK2(JH1 domain-catalytic) Kd
# Summary of the method: as §1
# EGFR(G719S) = conditions: at 1 μM
# Summary of the method: as §1
# RET(V804M) = conditions: at 1 μM
# Summary of the method: as §1
# EGFR(L858R, T790M) = conditions: at 1 μM
# Summary of the method: as §1
# AXL = conditions: at 1 μM
# Summary of the method: as §1
# [5] = tested on: ABL1(T315I)-phosphorylated; conditions: at 1 μM
# Summary of the method: as §1
# ERBB4 = conditions: at 1 μM
# Summary of the method: as §1
# TNK1 = conditions: at 1 μM
# Summary of the method: as §1
# [6] = tested on: ABL1(H396P)-nonphosphorylated; conditions: at 1 μM
# Summary of the method: as §1
# EGFR(L858R) = conditions: at 1 μM
# Summary of the method: as §1
# EPHA2 = conditions: at 1 μM
# Summary of the method: as §1
# EGFR(G719C) = conditions: at 1 μM
# Summary of the method: as §1
# SRMS = conditions: at 1 μM
# Summary of the method: as §1
# MERTK = conditions: at 1 μM
# Summary of the method: as §1
# CSK = conditions: at 1 μM
# Summary of the method: as §1
# MET(Y1235D) = conditions: at 1 μM
# Summary of the method: as §1
# EPHB6 = conditions: at 1 μM
# Summary of the method: as §1
# KIT(D816V) = conditions: at 1 μM
# Summary of the method: as §1
# ABL2 = conditions: at 1 μM
# Summary of the method: as §1
# FER = conditions: at 1 μM
# Summary of the method: as §1
# MUSK = conditions: at 1 μM
# Summary of the method: as §1
# [7] = tested on: ABL1(F3171)-phosphorylated; conditions: at 1 μM
# Summary of the method: as §1
# KIT(D816H) = conditions: at 1 μM
# Summary of the method: as §1
# SYK = conditions: at 1 μM
# Summary of the method: as §1
# EGFR(E746-A750del) = conditions: at 1 μM
# Summary of the method: as §1
# TXK = conditions: at 1 μM
# Summary of the method: as §1
# [8] = tested on: TYK2(JH1domain-catalytic); conditions: for % Ctrl: TYK2(JH1domain-catalytic), at 1 μM; for Kd: read-out: TYK2(JH1 domain-catalytic) Kd
# Summary of the method: as §1
# FAK = conditions: at 1 μM
# Summary of the method: as §1
smiles,measurement,setting,value
"Cc1cc2c([nH]1)/C=C1\C(=O)Nc3ccc(cc31)-c1c(nn(C)c1C)OCCCN(C)C2=O [Cpd. 1, [3a(4)Z]-6,9,15,16-tetramethyl-9,10,11,12-tetrahydro-15H-1,17-(ethanediylidene)pyrazolo[4,3-n]dipyrrolo[3,2-g:3′,4′-j][1,5]oxazacyclopentadecine-3,8(2H,5H)-dione]",% Ctrl,EPHB1,87%
same,% Ctrl,EPHA8,100%
same,% Ctrl,TRKA,67%
same,% Ctrl,FLT4,94%
same,% Ctrl,FES,92%
same,% Ctrl,[1],91%
same,% Ctrl,EGFR,100%
same,% Ctrl,KIT(V559D),91%
same,% Ctrl,FLT3(R834Q),97%
same,% Ctrl,[2],87%
same,% Ctrl,PDGFRB,100%
same,% Ctrl,[3],92%
same,% Ctrl,[4],98%
same,Kd,[4],> 10000 nM
same,% Ctrl,EGFR(G719S),80%
same,% Ctrl,RET(V804M),100%
same,% Ctrl,"EGFR(L858R, T790M)",89%
same,% Ctrl,AXL,85%
same,% Ctrl,[5],95%
same,% Ctrl,ERBB4,95%
same,% Ctrl,TNK1,100%
same,% Ctrl,[6],87%
same,% Ctrl,EGFR(L858R),100%
same,% Ctrl,EPHA2,97%
same,% Ctrl,EGFR(G719C),81%
same,% Ctrl,SRMS,93%
same,% Ctrl,MERTK,78%
same,% Ctrl,CSK,97%
same,% Ctrl,MET(Y1235D),98%
same,% Ctrl,EPHB6,100%
same,% Ctrl,KIT(D816V),97%
same,% Ctrl,ABL2,87%
same,% Ctrl,FER,97%
same,% Ctrl,MUSK,93%
same,% Ctrl,[7],64%
same,% Ctrl,KIT(D816H),74%
same,% Ctrl,SYK,98%
same,% Ctrl,EGFR(E746-A750del),95%
same,% Ctrl,TXK,100%
same,% Ctrl,[8],31%
same,Kd,[8],> 10000 nM
same,% Ctrl,FAK,85%
"Cc1cc2c([nH]1)/C=C1\C(=O)Nc3ccc(cc31)-c1c(nn(C)c1C)COCCN(C)C2=O [Cpd. 2, [3a(4)Z]-6,9,15,16-tetramethyl-10,11,13,15-tetrahydro-2H-1,17-(ethanediylidene)pyrazolo[4,3-m]dipyrrolo[3,2-f:3′,4′-i][1,4]oxazacyclopentadecine-3,8(5H,9H)-dione]",% Ctrl,EPHB1,99%
same,% Ctrl,EPHA8,92%
same,% Ctrl,TRKA,20%
same,% Ctrl,FLT4,19%
same,% Ctrl,FES,100%
same,% Ctrl,[1],100%
same,% Ctrl,EGFR,66%
same,% Ctrl,KIT(V559D),98%
same,% Ctrl,FLT3(R834Q),50%
same,% Ctrl,[2],57%
same,% Ctrl,PDGFRB,79%
same,% Ctrl,[3],60%
same,% Ctrl,[4],91%
same,Kd,[4],2300 nM
same,% Ctrl,EGFR(G719S),77%
same,% Ctrl,RET(V804M),77%
same,% Ctrl,"EGFR(L858R, T790M)",62%
same,% Ctrl,AXL,43%
same,% Ctrl,[5],5.3%
same,% Ctrl,ERBB4,67%
same,% Ctrl,TNK1,92%
same,% Ctrl,[6],35%
same,% Ctrl,EGFR(L858R),78%
same,% Ctrl,EPHA2,85%
same,% Ctrl,EGFR(G719C),80%
same,% Ctrl,SRMS,90%
same,% Ctrl,MERTK,100%
same,% Ctrl,CSK,100%
same,% Ctrl,MET(Y1235D),87%
same,% Ctrl,EPHB6,93%
same,% Ctrl,KIT(D816V),60%
same,% Ctrl,ABL2,96%
same,% Ctrl,FER,100%
same,% Ctrl,MUSK,100%
same,% Ctrl,[7],98%
same,% Ctrl,KIT(D816H),98%
same,% Ctrl,SYK,100%
same,% Ctrl,EGFR(E746-A750del),100%
same,% Ctrl,TXK,100%
same,% Ctrl,[8],100%
same,Kd,[8],> 10000 nM
same,% Ctrl,FAK,96%
"Cc1cc2c([nH]1)/C=C1\C(=O)Nc3c(Cl)cc(cc31)-c1cn(C)nc1COC[C@@H](C)NC2=O [Cpd. 3, [3a(4)Z,10R]-20-chloro-6,10,15-trimethyl-10,11,13,15-tetrahydro-2H-1,17-(ethanediylidene)pyrazolo[4,3-m]dipyrrolo[3,2-f:3′,4′-i][1,4]oxazacyclopentadecine-3,8(5H,9H)-dione]",% Ctrl,EPHB1,100%
same,% Ctrl,EPHA8,90%
same,% Ctrl,TRKA,61%
same,% Ctrl,FLT4,100%
same,% Ctrl,FES,99%
same,% Ctrl,[1],100%
same,% Ctrl,EGFR,79%
same,% Ctrl,KIT(V559D),100%
same,% Ctrl,FLT3(R834Q),100%
same,% Ctrl,[2],92%
same,% Ctrl,PDGFRB,100%
same,% Ctrl,[3],91%
same,% Ctrl,[4],93%
same,Kd,[4],> 10000 nM
same,% Ctrl,EGFR(G719S),100%
same,% Ctrl,RET(V804M),100%
same,% Ctrl,"EGFR(L858R, T790M)",72%
same,% Ctrl,AXL,86%
same,% Ctrl,[5],69%
same,% Ctrl,ERBB4,96%
same,% Ctrl,TNK1,94%
same,% Ctrl,[6],100%
same,% Ctrl,EGFR(L858R),96%
same,% Ctrl,EPHA2,93%
same,% Ctrl,EGFR(G719C),100%
same,% Ctrl,SRMS,69%
same,% Ctrl,MERTK,98%
same,% Ctrl,CSK,94%
same,% Ctrl,MET(Y1235D),100%
same,% Ctrl,EPHB6,86%
same,% Ctrl,KIT(D816V),97%
same,% Ctrl,ABL2,97%
same,% Ctrl,FER,73%
same,% Ctrl,MUSK,98%
same,% Ctrl,[7],97%
same,% Ctrl,KIT(D816H),94%
same,% Ctrl,SYK,68%
same,% Ctrl,EGFR(E746-A750del),98%
same,% Ctrl,TXK,91%
same,% Ctrl,[8],71%
same,Kd,[8],> 10000 nM
same,% Ctrl,FAK,100%
"C[C@@H]1COCc2nn(C)cc2-c2cc(Cl)c3c(c2)/C(=C/c2[nH]ccc2C(=O)N1)C(=O)N3 [Cpd. 4, [3a(4)Z,10R]-20-chloro-10,15-dimethyl-10,11,13,15-tetrahydro-2H-1,17-(ethanediylidene)pyrazolo[4,3-m]dipyrrolo[3,2-f:3′,4′-i][1,4]oxazacyclopentadecine-3,8(5H,9H)-dione]",% Ctrl,EPHB1,97%
same,% Ctrl,EPHA8,82%
same,% Ctrl,TRKA,59%
same,% Ctrl,FLT4,100%
same,% Ctrl,FES,100%
same,% Ctrl,[1],95%
same,% Ctrl,EGFR,82%
same,% Ctrl,KIT(V559D),100%
same,% Ctrl,FLT3(R834Q),100%
same,% Ctrl,[2],86%
same,% Ctrl,PDGFRB,100%
same,% Ctrl,[3],79%
same,% Ctrl,[4],57%
same,Kd,[4],1800 nM
same,% Ctrl,EGFR(G719S),96%
same,% Ctrl,RET(V804M),90%
same,% Ctrl,"EGFR(L858R, T790M)",77%
same,% Ctrl,AXL,67%
same,% Ctrl,[5],35%
same,% Ctrl,ERBB4,100%
same,% Ctrl,TNK1,94%
same,% Ctrl,[6],82%
same,% Ctrl,EGFR(L858R),95%
same,% Ctrl,EPHA2,96%
same,% Ctrl,EGFR(G719C),93%
same,% Ctrl,SRMS,68%
same,% Ctrl,MERTK,48%
same,% Ctrl,CSK,100%
same,% Ctrl,MET(Y1235D),100%
same,% Ctrl,EPHB6,86%
same,% Ctrl,KIT(D816V),100%
same,% Ctrl,ABL2,97%
same,% Ctrl,FER,68%
same,% Ctrl,MUSK,98%
same,% Ctrl,[7],98%
same,% Ctrl,KIT(D816H),80%
same,% Ctrl,SYK,64%
same,% Ctrl,EGFR(E746-A750del),96%
same,% Ctrl,TXK,78%
same,% Ctrl,[8],48%
same,Kd,[8],1500 nM
same,% Ctrl,FAK,96%
